Data as given in the supplement of paper PMC10307832.

The cell lines below were run with Cc1cnc(CNC(=O)c2c(=O)c3ccc(N4CCCN(C)CC4)nc3n3c2sc2ccccc23)cn1 [CX-5461] + O=C(CCCCCCC(=O)Nc1ccccc1)NO [Vorinostat] (partner 1 µM) (assay: relative viability (nuclei count vs DMSO), 5 days (fraction); higher = more cells survive). Conditions: first compound 0.01 µM.
Method in brief: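 Relative viability was taken as the ratio of nuclei in treated wells to nuclei in vehicle wells. Lung cancer cell lines in 1536-well plates received compounds by pin tool one day after seeding, either one drug alone or a fixed anchor-drug dose plus five library-drug doses (not always all listed) in √10 steps. Nuclei were counted on 4× images after 5 days of treatment, and values are medians of duplicate plates.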
NCI-H358 gave a relative viability of 0.745.
Work on NCI-H2405 yielded a relative viability of 1.04.
Work on HOP-62 yielded a relative viability of 0.542.
In the case of SW 900, the relative viability is reported as 0.446.
Cell Line LU99A has a relative viability of 0.529.
BEN was tested, and the relative viability was 0.596.
HARA showed a relative viability of 0.516.
Cell Line NCI-H322M has a relative viability of 0.894.
Cell Line LCLC-97TM1 has a relative viability of 0.917.
In the case of NCI-H2009, the relative viability is reported as 0.755.
In the case of A-427, the relative viability is reported as 0.879.
Cell Line NCI-H441 has a relative viability of 0.538.
NCI-H661 showed a relative viability of 0.822.
NCI-H1734 was tested, and the relative viability was 0.83.
In the case of NCI-H460, the relative viability is reported as 0.721.
NCI-H2347 gave a relative viability of 0.457.
SW 1573 showed a relative viability of 0.726.
In the case of NCI-H1793, the relative viability is reported as 0.894.
201T was tested, and the relative viability was 1.07.
NCI-H1915 showed a relative viability of 0.554.
HCC-827 showed a relative viability of 0.854.
Work on LXF-289 yielded a relative viability of 0.803.
NCI-H23 was tested, and the relative viability was 0.755.
Work on NCI-H647 yielded a relative viability of 0.646.
Cell Line CAL-12T has a relative viability of 0.833.
Cell Line NCI-H1651 has a relative viability of 0.55.
With EPLC-272H the relative viability was 0.47.
NCI-H2228 gave a relative viability of 0.516.
Work on NCI-H1355 yielded a relative viability of 0.711.
Work on NCI-H3122 yielded a relative viability of 1.02.
NCI-H1437 showed a relative viability of 0.942.
NCI-H1755 showed a relative viability of 0.806.
In the case of NCI-H2023, the relative viability is reported as 0.564.

Same assay, conditions: first compound 0.03162 µM
NCI-H358 gave a relative viability of 0.78.
In the case of NCI-H2405, the relative viability is reported as 0.872.
HOP-62 gave a relative viability of 0.856.
Cell Line SW 900 has a relative viability of 0.586.
LU99A was tested, and the relative viability was 0.544.
Work on BEN yielded a relative viability of 0.588.
HARA was tested, and the relative viability was 0.568.
In the case of NCI-H322M, the relative viability is reported as 0.802.
With LCLC-97TM1 the relative viability was 0.965.
Work on NCI-H2009 yielded a relative viability of 0.716.
For A-427, the relative viability was 0.884.
NCI-H441 gave a relative viability of 0.984.
With NCI-H661 the relative viability was 0.8.
In the case of NCI-H1734, the relative viability is reported as 0.908.
Cell Line NCI-H460 has a relative viability of 0.909.
NCI-H2347 gave a relative viability of 0.608.
SW 1573 was tested, and the relative viability was 0.668.
Work on NCI-H1793 yielded a relative viability of 0.927.
201T showed a relative viability of 1.04.
NCI-H1915 showed a relative viability of 0.567.
Work on HCC-827 yielded a relative viability of 0.887.
Work on LXF-289 yielded a relative viability of 0.744.
NCI-H23 showed a relative viability of 0.577.
With NCI-H647 the relative viability was 0.536.
CAL-12T was tested, and the relative viability was 0.951.
For NCI-H1651, the relative viability was 0.552.
Work on EPLC-272H yielded a relative viability of 0.362.
Cell Line NCI-H2228 has a relative viability of 0.66.
NCI-H1355 was tested, and the relative viability was 0.736.
Work on NCI-H3122 yielded a relative viability of 1.02.
Cell Line NCI-H1437 has a relative viability of 0.871.
Work on NCI-H1755 yielded a relative viability of 0.793.
In the case of NCI-H2023, the relative viability is reported as 0.355.

Same assay, conditions: first compound 0.1 µM
For NCI-H358, the relative viability was 0.701.
NCI-H2405 showed a relative viability of 0.994.
In the case of HOP-62, the relative viability is reported as 0.655.
With LU99A the relative viability was 0.377.
Work on BEN yielded a relative viability of 0.514.
For HARA, the relative viability was 0.485.
Cell Line NCI-H322M has a relative viability of 0.9.
LCLC-97TM1 showed a relative viability of 0.769.
NCI-H2009 was tested, and the relative viability was 0.652.
Work on A-427 yielded a relative viability of 0.872.
Work on NCI-H441 yielded a relative viability of 0.707.
NCI-H661 gave a relative viability of 0.734.
For NCI-H1734, the relative viability was 0.744.
With NCI-H460 the relative viability was 0.216.
Cell Line NCI-H2347 has a relative viability of 0.512.
With SW 1573 the relative viability was 0.116.
For NCI-H1793, the relative viability was 0.786.
Work on 201T yielded a relative viability of 1.02.
In the case of NCI-H1915, the relative viability is reported as 0.503.
For HCC-827, the relative viability was 0.85.
For LXF-289, the relative viability was 0.635.
NCI-H23 showed a relative viability of 0.492.
In the case of NCI-H647, the relative viability is reported as 0.441.
In the case of CAL-12T, the relative viability is reported as 0.74.
NCI-H1651 was tested, and the relative viability was 0.546.
EPLC-272H gave a relative viability of 0.362.
With NCI-H2228 the relative viability was 0.54.
Work on NCI-H1355 yielded a relative viability of 0.625.
NCI-H3122 gave a relative viability of 1.12.
NCI-H1437 showed a relative viability of 0.791.
NCI-H1755 gave a relative viability of 0.735.

Same assay, conditions: first compound 0.3162 µM
In the case of NCI-H358, the relative viability is reported as 0.27.
Cell Line NCI-H2405 has a relative viability of 0.939.
With HOP-62 the relative viability was 0.271.
Cell Line SW 900 has a relative viability of 0.637.
LU99A showed a relative viability of 0.323.
BEN showed a relative viability of 0.536.
For NCI-H322M, the relative viability was 0.569.
In the case of LCLC-97TM1, the relative viability is reported as 0.102.
With NCI-H2009 the relative viability was 0.661.
A-427 was tested, and the relative viability was 0.805.
With NCI-H441 the relative viability was 0.618.
Work on NCI-H661 yielded a relative viability of 0.472.
NCI-H1734 showed a relative viability of 0.278.
With NCI-H460 the relative viability was 0.48.
Cell Line NCI-H2347 has a relative viability of 0.552.
Cell Line SW 1573 has a relative viability of 0.15.
NCI-H1793 gave a relative viability of 0.367.
201T gave a relative viability of 0.559.
NCI-H1915 showed a relative viability of 0.427.
With HCC-827 the relative viability was 0.567.
NCI-H23 gave a relative viability of 0.458.
For NCI-H647, the relative viability was 0.548.
With CAL-12T the relative viability was 0.577.
NCI-H1651 was tested, and the relative viability was 0.566.
For EPLC-272H, the relative viability was 0.48.
NCI-H2228 was tested, and the relative viability was 0.793.
NCI-H1355 was tested, and the relative viability was 0.432.
NCI-H3122 gave a relative viability of 1.07.
NCI-H1437 gave a relative viability of 0.858.
NCI-H1755 showed a relative viability of 0.722.
Cell Line NCI-H2023 has a relative viability of 0.15.

Same assay, conditions: first compound 1 µM
NCI-H358 showed a relative viability of 0.402.
In the case of NCI-H2405, the relative viability is reported as 0.669.
Cell Line HOP-62 has a relative viability of 0.405.
In the case of SW 900, the relative viability is reported as 0.359.
LU99A was tested, and the relative viability was 0.215.
For BEN, the relative viability was 0.608.
Cell Line HARA has a relative viability of 0.476.
Work on NCI-H322M yielded a relative viability of 0.743.
In the case of LCLC-97TM1, the relative viability is reported as 0.661.
Work on NCI-H2009 yielded a relative viability of 0.332.
A-427 showed a relative viability of 0.548.
Work on NCI-H441 yielded a relative viability of 0.556.
For NCI-H661, the relative viability was 0.583.
With NCI-H1734 the relative viability was 0.35.
NCI-H460 gave a relative viability of 0.0282.
In the case of NCI-H2347, the relative viability is reported as 0.501.
SW 1573 gave a relative viability of 0.214.
In the case of NCI-H1793, the relative viability is reported as 0.645.
For 201T, the relative viability was 0.976.
In the case of NCI-H1915, the relative viability is reported as 0.482.
In the case of HCC-827, the relative viability is reported as 0.923.
For LXF-289, the relative viability was 0.544.
With NCI-H23 the relative viability was 0.3.
NCI-H647 was tested, and the relative viability was 0.251.
CAL-12T was tested, and the relative viability was 0.337.
Cell Line NCI-H1651 has a relative viability of 0.194.
With EPLC-272H the relative viability was 0.458.
With NCI-H2228 the relative viability was 0.114.
NCI-H1355 showed a relative viability of 0.43.
For NCI-H3122, the relative viability was 0.967.
Work on NCI-H1437 yielded a relative viability of 0.749.
